# Measurements reported in the supplement of paper PMC10307832.
# Key:
# Assay in all cases: relative viability (nuclei count vs DMSO), 5 days (fraction); higher = more cells survive
# [1] = tested on: NCI-H2009
# Summary of the method: (§1)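 Nuclei were stained with Hoechst during a one-step fixation (final 0.05% Triton X-100, 1% formaldehyde, 1 ug/ml Hoechst) carried out 5 days after dosing, then counted on 4× images. The cells, lung cancer lines in 1536-well plates, had been dosed by pin tool the day after seeding with one drug alone or a fixed anchor-drug dose plus five library-drug doses (not always all listed) in √10 steps. Relative viability is the nuclei count in treated wells divided by that in vehicle wells, and each value is the median of duplicate plates.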
# [2] = tested on: NCI-H23
# Summary of the method: as §1
# [3] = tested on: EMC-BAC-2
# Summary of the method: as §1
# [4] = tested on: NCI-H522
# Summary of the method: as §1
# [5] = tested on: NCI-H2228
# Summary of the method: as §1
# [6] = tested on: NCI-H1915
# Summary of the method: as §1
# [7] = tested on: NCI-H1437
# Summary of the method: as §1
# [8] = tested on: NCI-H1395
# Summary of the method: as §1
# [9] = tested on: SK-LU-1
# Summary of the method: as §1
# [10] = tested on: NCI-H460
# Summary of the method: as §1
# [11] = tested on: NCI-H1975
# Summary of the method: as §1
# [12] = tested on: HARA
# Summary of the method: as §1
smiles,measurement,setting,value
Clc1ccc(Nc2nnc(Cc3ccncc3)c3ccccc23)cc1 [Vatalanib] + Cc1cc(Nc2cc(N3CCN(C)CC3)nc(Sc3ccc(NC(=O)C4CC4)cc3)n2)n[nH]1 [Tozasertib] (partner 0.1 µM),relative viability,[1]; first compound 0.4 µM,0.864
same,relative viability,[1]; first compound 1.265 µM,0.739
same,relative viability,[1]; first compound 4 µM,0.682
same,relative viability,[2]; first compound 0.04 µM,0.435
same,relative viability,[2]; first compound 0.1265 µM,0.373
same,relative viability,[2]; first compound 0.4 µM,0.364
same,relative viability,[2]; first compound 1.265 µM,0.314
same,relative viability,[2]; first compound 4 µM,0.578
same,relative viability,[3]; first compound 0.04 µM,0.218
same,relative viability,[3]; first compound 0.1265 µM,0.302
same,relative viability,[3]; first compound 0.4 µM,0.308
same,relative viability,[3]; first compound 1.265 µM,0.264
same,relative viability,[3]; first compound 4 µM,0.305
same,relative viability,[4]; first compound 0.04 µM,0.565
same,relative viability,[4]; first compound 0.1265 µM,0.508
same,relative viability,[4]; first compound 0.4 µM,0.636
same,relative viability,[4]; first compound 1.265 µM,0.57
same,relative viability,[4]; first compound 4 µM,0.477
same,relative viability,[5]; first compound 0.04 µM,0.235
same,relative viability,[5]; first compound 0.1265 µM,0.309
same,relative viability,[5]; first compound 0.4 µM,0.273
same,relative viability,[5]; first compound 1.265 µM,0.227
same,relative viability,[5]; first compound 4 µM,0.239
same,relative viability,[6]; first compound 0.04 µM,0.457
same,relative viability,[6]; first compound 0.1265 µM,0.413
same,relative viability,[6]; first compound 0.4 µM,0.468
same,relative viability,[6]; first compound 1.265 µM,0.385
same,relative viability,[6]; first compound 4 µM,0.442
same,relative viability,[7]; first compound 0.04 µM,0.409
same,relative viability,[7]; first compound 0.1265 µM,0.353
same,relative viability,[7]; first compound 0.4 µM,0.41
same,relative viability,[7]; first compound 1.265 µM,0.437
same,relative viability,[7]; first compound 4 µM,0.392
same,relative viability,[8]; first compound 0.04 µM,0.734
same,relative viability,[8]; first compound 0.1265 µM,0.75
same,relative viability,[8]; first compound 0.4 µM,0.747
same,relative viability,[8]; first compound 1.265 µM,0.648
same,relative viability,[8]; first compound 4 µM,0.792
same,relative viability,[9]; first compound 0.04 µM,0.374
same,relative viability,[9]; first compound 0.1265 µM,0.33
same,relative viability,[9]; first compound 0.4 µM,0.404
same,relative viability,[9]; first compound 1.265 µM,0.349
same,relative viability,[9]; first compound 4 µM,0.322
same,relative viability,[10]; first compound 0.04 µM,0.656
same,relative viability,[10]; first compound 0.1265 µM,0.299
same,relative viability,[10]; first compound 1.265 µM,0.296
same,relative viability,[10]; first compound 4 µM,0.397
same,relative viability,[11]; first compound 0.04 µM,0.835
same,relative viability,[11]; first compound 0.1265 µM,0.687
same,relative viability,[11]; first compound 0.4 µM,0.726
same,relative viability,[11]; first compound 1.265 µM,0.535
same,relative viability,[11]; first compound 4 µM,0.424
same,relative viability,[12]; first compound 0.04 µM,0.0991
same,relative viability,[12]; first compound 0.1265 µM,0.11
same,relative viability,[12]; first compound 0.4 µM,0.108
same,relative viability,[12]; first compound 1.265 µM,0.0945
same,relative viability,[12]; first compound 4 µM,0.112
